Data on 22 molecules can be found in patent publication US9556205B2, “Fungicide N-[(trisubstitutedsilyl)methyl]-carboxamide derivatives” (BAYER INTELLECTUAL PROPERTY GMBH, priority 2010, dated 2017).

One data set relates to Aspergillus parasiticus. Format: cell-based. To be noted: 7 days at 20° C., OD620nm.
The subject of another data set is Pyrenophora teres. In words: In vivo preventive test on Pyrenophora teres (barley), Example F. The following applies: 500 ppm of active ingredient, evaluated 7-9 days after inoculation. The procedure:
(§1) Solvent: 49 parts by weight of N,N-dimethylformamide Emulsifier: 1 part by weight of alkylaryl polyglycol ether To produce a suitable preparation of active compound, 1 part by weight of active compound is mixed with the stated amounts of solvent and emulsifier, and the concentrate is diluted with water to the desired concentration. To test for preventive activity, young plants are sprayed with the preparation of active compound at the stated rate of application. One day after this treatment, the plants are inoculated with an aqueous spore suspension of Pyrenophora teres. […] Then the plants are placed in a greenhouse at a temperature of approximately 20° C. and a relative atmospheric humidity of approximately 80%.

For a further data set, the system named is Leptosphaeria nodorum. In words: In vivo preventive test on Leptosphaeria nodorum (wheat). The following applies: 500 ppm of active ingredient, evaluated 8 days after inoculation. The procedure: Solvent: 49 parts by weight of N,N-dimethylacetamide Emulsifier: 1 part by weight of alkylaryl polyglycol ether To produce a suitable preparation of active compound, 1 part by weight of active compound or the compound combination is mixed with the stated amounts of solvent and emulsifier, and the concentrate is diluted with water to the desired concentration. To test for protective activity, young plants are sprayed with a preparation of active compound or active compound combination at the stated rate of application. After the spray coating has dried on, the plants are sprayed with a spore suspension of Leptosphaeria nodorum. […] The plants are placed in a greenhouse at a temperature of approximately 15° C. and a relative atmospheric humidity of approximately 80%.

The nature of data set [1]: log P by HPLC on reversed-phase column (C18), EEC Directive 79/831 Annex V.A8. Format: physicochemical. The following applies: 40° C., 0.1% aqueous formic acid and acetonitrile, linear gradient 10% to 90% acetonitrile. The procedure:
In table 1, the log P values were determined in accordance with EEC Directive 79/831 Annex V.A8 by HPLC (High Performance Liquid Chromatography) on a reversed-phase column (C18), using the method described below:
Temperature: 40° C.; Mobile phases: 0.1% aqueous formic acid and acetonitrile; linear gradient from 10% acetonitrile to 90% acetonitrile.
Calibration was carried out using unbranched alkan-2-ones (comprising 3 to 16 carbon atoms) with known log P values (determination of the log P values by the retention times using linear interpolation between two successive alkanones). lambda-max-values were determined using UV-spectra from 200 nm to 400 nm and the peak values of the chromatographic signals.

For data set [2], the system named is Aflatoxins production by Aspergillus parasiticus. The format is cell-based.
Another data set deals with Alternaria solani. In words: In vivo preventive test on Alternaria solani (tomato). To be noted: 500 ppm of active ingredient, evaluated 7 days after inoculation. The procedure:
as §1, with “Alkylarylpolyglycolether” for “alkylaryl polyglycol ether”, “Alternaria solani.” for “Pyrenophora teres.”, “an incubation cabinet” for “a greenhouse”, “at” for “at a temperature of”, “96%.” for “approximately 80%.”

The next data set relates to Septoria tritici. The data set is described as follows: In vivo preventive test on Septoria tritici (wheat). The following applies: 500 ppm of active ingredient, evaluated 21 days after inoculation. Here is the method: Solvent: 49 parts by weight of N,N-dimethylacetamide Emulsifier: 1 part by weight of alkylaryl polyglycol ether To produce a suitable preparation of active compound, 1 part by weight of active compound or active compound combination is mixed with the stated amounts of solvent and emulsifier, and the concentrate is diluted with water to the desired concentration. To test for preventive activity, young plants are sprayed with the preparation of active compound or active compound combination at the stated rate of application. After the spray coating has dried on, the plants are sprayed with a spore suspension of Septoria tritici. […] The plants are placed in a greenhouse at a temperature of approximately 15° C. and a relative atmospheric humidity of approximately 80%.

For another data set, the system named is Venturia inaequalis. In words: In vivo preventive test on Venturia inaequalis (apple scab). The following applies: 100 ppm of active ingredient, evaluated 10 days after inoculation. Here is the method: Solvent: 24.5 parts by weight of acetone • 24.5 parts by weight of N,N-dimethylacetamide Emulsifier: 1 part by weight of alkylaryl polyglycol ether To produce a suitable preparation of active compound, 1 part by weight of active compound is mixed with the stated amounts of solvent and emulsifier, and the concentrate is diluted with water to the desired concentration. To test for protective activity, young plants are sprayed with the preparation of active compound at the stated rate of application. […] The plants are then placed in a greenhouse at approximately 21° C. and a relative atmospheric humidity of approximately 90%.

Values joined by “and” are separate entries in the source; they are usually repeats but may differ in a detail not shown here. Equal values may be shown once.

As for `CN(C[Si](C)(C)c1ccccc1)C(=O)c1c(C(F)F)nn(C)c1F` [Example 4], in the data set on Aspergillus parasiticus, the “% Inhibition of fungal growth at 50 μM” value came to 100%. In addition, the Efficacy with Pyrenophora teres is listed as 100%; with Leptosphaeria nodorum, 93%; in the data set with Alternaria solani it was 100%; in the data set on Septoria tritici it was 100%. In addition, the logP in data set [1] was determined as 3.23. Moreover, the “% Inhibition of Aflatoxin at 50 μM” value in data set [2] was determined as 100%.

On to `CCc1nn(C)c(F)c1C(=S)N(C[Si](C)(C)c1ccccc1)C1CC1` [Example 9], for which the Efficacy was 100% in the data set on Pyrenophora teres, 100% in the data set with Leptosphaeria nodorum, 100% in the data set on Alternaria solani and 93% in the data set with Septoria tritici. In addition, in data set [1], the logP amounted to 4.41.

Consider `Cc1nn(C)c(F)c1C(=S)N(C[Si](C)(C)c1ccccc1)C1CC1` [Example 10], for which the Efficacy with Pyrenophora teres, with Leptosphaeria nodorum, with Alternaria solani and with Septoria tritici was 100% each time. The same molecule displayed a logP in data set [1] of 3.99.

`Cn1nc(C(F)F)c(C(=O)NC[Si](C)(C)c2ccccc2Cl)c1F` [Example 15]: in the data set with Aspergillus parasiticus, the “% Inhibition of fungal growth at 50 μM” value was found to be 76%. Besides, the Efficacy in the data set on Pyrenophora teres was determined as 100%; in the data set with Alternaria solani, 95%; in the data set on Septoria tritici it was 90%. In data set [1], this molecule returned a logP of 3.48. Besides, the “% Inhibition of Aflatoxin at 50 μM” value in data set [2] worked out at 88%.

On to `Cn1cc(C(=O)N(C[Si](C)(C)c2ccccc2Cl)C2CC2)c(C(F)F)n1` [Example 17], for which the Efficacy is reported as 95% in the data set on Pyrenophora teres; 94% in the data set on Leptosphaeria nodorum; 98% in the data set with Venturia inaequalis; 94% in the data set with Alternaria solani; 83% with Septoria tritici. In data set [1], this molecule returned a logP of 3.73.

On to `CCc1nn(C)c(F)c1C(=O)N(C[Si](C)(C)c1ccccc1Cl)C1CC1` [Example 20], for which the Efficacy in the data set on Pyrenophora teres was determined as 100%; with Leptosphaeria nodorum, 100%; in the data set on Venturia inaequalis, 90%; in the data set on Alternaria solani it was 100%; with Septoria tritici, 92%. The same molecule came in with a lipophilicity (logP) in data set [1] of 4.03.

Regarding `Cc1nc(C(F)F)c(C(=O)N(C[Si](C)(C)c2ccccc2Cl)C2CC2)s1` [Example 21], the Efficacy turned out to be 100% with Pyrenophora teres, 100% in the data set on Leptosphaeria nodorum, 95% in the data set with Alternaria solani and 100% in the data set on Septoria tritici. This molecule yielded a logP in data set [1] of 4.32.

Regarding `CCc1nn(C)c(F)c1C(=O)N(C[Si](C)(C)c1cccc(Cl)c1)C1CC1` [Example 28], the Efficacy was 100% with Pyrenophora teres; 100% in the data set on Leptosphaeria nodorum; 88% in the data set with Venturia inaequalis; 100% in the data set with Alternaria solani; 100% with Septoria tritici. In data set [1], this molecule returned a logP of 4.08.

With `Cn1cc(C(=O)N(C[Si](C)(C)c2cccc(Cl)c2)C2CC2)c(C(F)F)n1` [Example 30], the Efficacy with Pyrenophora teres was found to be 100%; with Leptosphaeria nodorum, 100%; with Alternaria solani, 95%; in the data set with Septoria tritici, 100%. The molecule further displayed a logP in data set [1] of 3.80.

For the molecule `Cc1nc(C(F)F)c(C(=O)N(C[Si](C)(C)c2cccc(Cl)c2)C2CC2)s1` [Example 32], the values for the Efficacy in the data set with Pyrenophora teres, in the data set on Leptosphaeria nodorum and with Septoria tritici were 95%, 100% and 100%, respectively. In data set [1], this molecule gave a logP of 4.32.

Take `Cc1nn(C)c(F)c1C(=O)N(C[Si](C)(C)c1ccc(Cl)cc1Cl)C1CC1` [Example 39]: the Efficacy with Pyrenophora teres is on record as 100%; in the data set on Leptosphaeria nodorum, 94%; in the data set on Venturia inaequalis, 100%; with Alternaria solani, 94%; in the data set with Septoria tritici, 100%. This molecule also returned a logP in data set [1] of 4.30.

Turning to `Cc1cc(C(=O)N(C[Si](C)(C)c2ccc(Cl)cc2Cl)C2CC2)c(C)o1` [Example 40], the values for the Efficacy in the data set on Pyrenophora teres and with Septoria tritici were 95% and 100%, respectively. In addition, in data set [1], the logP was 5.46.

For the molecule `Cc1nn(C)c(F)c1C(=O)N(C[Si](C)(C)c1cc(Cl)cc(Cl)c1)C1CC1` [Example 48], the Efficacy in the data set on Pyrenophora teres, in the data set with Leptosphaeria nodorum and with Alternaria solani was 100% in each case. This molecule had a logP in data set [1] of 4.34.

In the case of `Cn1cc(C(=O)N(C[Si](C)(C)c2cc(Cl)cc(Cl)c2)C2CC2)c(C(F)F)n1` [Example 51], the Efficacy is 100% in the data set on Pyrenophora teres; 80% and 95% in the data set on Leptosphaeria nodorum; 95% in the data set on Alternaria solani; 100% in the data set on Septoria tritici. In data set [1], this molecule had a logP of 4.41.

On to `Cn1nc(C(F)F)c(C(=O)N(C[Si](C)(C)Cc2ccccc2Cl)C2CC2)c1F` [Example 61], for which the “% Inhibition of fungal growth at 50 μM” value with Aspergillus parasiticus turned out to be 100%. Further, the Efficacy in the data set with Pyrenophora teres and in the data set with Alternaria solani was 100% in each case. In data set [1], this molecule showed a logP of 4.41. In addition, the “% Inhibition of Aflatoxin at 50 μM” value in data set [2] was 100%.

For the molecule `Cn1nc(C(F)F)c(C(=O)N(C[Si](C)(C)Cc2cccc(Cl)c2)C2CC2)c1Cl` [Example 65], the “% Inhibition of fungal growth at 50 μM” value in the data set with Aspergillus parasiticus is recorded as 72%. Also, the Efficacy was 100% in the data set on Pyrenophora teres and 95% in the data set with Alternaria solani. The molecule also displayed a lipophilicity (logP) in data set [1] of 4.59. In addition, the “% Inhibition of Aflatoxin at 50 μM” value in data set [2] is recorded as 82%.

As to `Cn1nc(C(F)F)c(C(=O)N(C[Si](C)(C)Cc2cccc(Cl)c2)C2CC2)c1F` [Example 66], the “% Inhibition of fungal growth at 50 μM” value in the data set on Aspergillus parasiticus was 100%. The Efficacy in the data set with Pyrenophora teres and with Alternaria solani was 100% each time. The molecule further yielded a lipophilicity (logP) in data set [1] of 4.44. For the same molecule, the “% Inhibition of Aflatoxin at 50 μM” value in data set [2] worked out at 100%.

As for `Cn1nc(C(F)F)c(C(=O)N(C[Si](C)(C)Cc2ccc(Cl)cc2Cl)C2CC2)c1Cl` [Example 69], the “% Inhibition of fungal growth at 50 μM” value in the data set on Aspergillus parasiticus is recorded as 85%. The Efficacy with Pyrenophora teres and in the data set with Alternaria solani was 100% throughout. In data set [1], this molecule had a logP of 5.19. For the same molecule, in data set [2], the “% Inhibition of Aflatoxin at 50 μM” value was found to be 100%.

On to `Cn1nc(C(F)F)c(C(=O)N(C[Si](C)(C)Cc2ccc(Cl)cc2Cl)C2CC2)c1F` [Example 70], for which the “% Inhibition of fungal growth at 50 μM” value in the data set with Aspergillus parasiticus was determined as 100%. Besides, the Efficacy with Pyrenophora teres and with Alternaria solani was 100% throughout. The lipophilicity (logP) in data set [1] came to 5.03. The “% Inhibition of Aflatoxin at 50 μM” value in data set [2] was 100%.

For `Cn1nc(C(F)F)c(C(=O)N(C[Si](C)(C)c2ccc3ccccc3c2)C2CC2)c1F` [Example 74], the “% Inhibition of fungal growth at 50 μM” value in the data set with Aspergillus parasiticus amounted to 100%. Besides, the Efficacy with Pyrenophora teres and in the data set with Alternaria solani was 100% each time. In addition, in data set [1], the lipophilicity (logP) is on record as 4.36. Besides, in data set [2], the “% Inhibition of Aflatoxin at 50 μM” value came out at 100%.

Consider `Cn1nc(C(F)F)c(C(=O)N(C[Si](C)(C)c2ccsc2)C2CC2)c1Cl` [Example 75], for which, in the data set on Aspergillus parasiticus, the “% Inhibition of fungal growth at 50 μM” value came out at 100%. Besides, the Efficacy came to 100% with Pyrenophora teres and 94% in the data set on Alternaria solani. Further, in data set [1], the logP turned out to be 3.71. For the same molecule, the “% Inhibition of Aflatoxin at 50 μM” value in data set [2] is listed as 100%.

With `Cn1nc(C(F)F)c(C(=O)N(C[Si](C)(C)c2ccsc2)C2CC2)c1F` [Example 76], in the data set with Aspergillus parasiticus, the “% Inhibition of fungal growth at 50 μM” value was found to be 100%. Further, the Efficacy is given as 100% in the data set with Pyrenophora teres and 94% in the data set on Alternaria solani. The molecule also yielded a lipophilicity (logP) in data set [1] of 3.55. For the same molecule, in data set [2], the “% Inhibition of Aflatoxin at 50 μM” value turned out to be 100%.
